± gives the expanded uncertainty stated by the source.
Assay: xn = mol fraction of the nth substance listed
Details: 101 kPa, Liquid, Vibrating tube method

CCN(CC)CCO.Cl [2-(diethylamino)ethanol hydrochloride] + OCC(O)CO
mass density [kg/m3]
Details	x1 = 0.2	x1 = 0.25	x1 = 0.33
298.15 K	1220.1 ± 12	1205.1 ± 12	–
303.15 K	1217.3 ± 12	1202 ± 12	1170 ± 12
308.15 K	1214.1 ± 12	1199 ± 12	–
313.15 K	1211.4 ± 12	1196.1 ± 12	1163.8 ± 12
318.15 K	1208.1 ± 12	1192.9 ± 12	–
323.15 K	1204.8 ± 12	1188.4 ± 12	1158.5 ± 12
328.15 K	1202.1 ± 12	1186.8 ± 12	–
333.15 K	1198.9 ± 12	1184 ± 12	1153.1 ± 12
338.15 K	1196.1 ± 12	1180.7 ± 12	–
343.15 K	1193.6 ± 12	1177.7 ± 12	1145.8 ± 12
348.15 K	1190.1 ± 12	1174.6 ± 12	–
353.15 K	1187.3 ± 12	1171.9 ± 12	1140.3 ± 12
358.15 K	1184.1 ± 12	1168.5 ± 12	–
363.15 K	1180.7 ± 12	1166.1 ± 12	1134.4 ± 12
368.15 K	1178.1 ± 12	1162.4 ± 12	–

CCN(CC)CCO.Cl [2-(diethylamino)ethanol hydrochloride] + OCCO
mass density [kg/m3]
Details	x1 = 0.2	x1 = 0.25	x1 = 0.33
298.15 K	1103.7 ± 12	–	1099.5 ± 12
303.15 K	1100.4 ± 12	1098.6 ± 12	1096.5 ± 12
308.15 K	1097.3 ± 12	–	1093.3 ± 12
313.15 K	1094.2 ± 12	1092.6 ± 12	1090.3 ± 12
318.15 K	1091 ± 12	–	1087.1 ± 12
323.15 K	1087.7 ± 12	1086.2 ± 12	1084 ± 12
328.15 K	1084.6 ± 12	–	1080.9 ± 12
333.15 K	1081.5 ± 12	1079.7 ± 12	1077.8 ± 12
338.15 K	1078.2 ± 12	–	1074.8 ± 12
343.15 K	1075 ± 12	1074 ± 12	1071.7 ± 12
348.15 K	1071.8 ± 12	–	1068.6 ± 12
353.15 K	1068.3 ± 12	1067.5 ± 12	1065.5 ± 12
358.15 K	1065.4 ± 12	–	1062.4 ± 12
363.15 K	1062.2 ± 11	1060 ± 11	1059 ± 11
368.15 K	1059 ± 11	–	1056.2 ± 11

C[N+](C)(C)CCO.[Cl-] [choline chloride] + OCC(O)CO
mass density [kg/m3]
Details	x1 = 0.25	x1 = 0.33	x1 = 0.5
298.15 K	1203 ± 12	1192 ± 12	–
303.15 K	1200.2 ± 12	1189.5 ± 12	1153.5 ± 12
308.15 K	1197.6 ± 12	1186.7 ± 12	–
313.15 K	1195.1 ± 12	1183.8 ± 12	1148.3 ± 12
318.15 K	1192.2 ± 12	1181.4 ± 12	–
323.15 K	1189.1 ± 12	1177.6 ± 12	1143 ± 12
328.15 K	1186.8 ± 12	1176.1 ± 12	–
333.15 K	1184.4 ± 12	1174.1 ± 12	1137.9 ± 12
338.15 K	1181.4 ± 12	1170.8 ± 12	–
343.15 K	1178.1 ± 12	1167.4 ± 12	1132.6 ± 12
348.15 K	1176 ± 12	1165.5 ± 12	–
353.15 K	1173.2 ± 12	1163.5 ± 12	1126.6 ± 12
358.15 K	1170.6 ± 12	1160.2 ± 12	–
363.15 K	1167.8 ± 12	1157.1 ± 12	1122 ± 12
368.15 K	1165.2 ± 12	1154.9 ± 12	–

C[N+](C)(C)CCO.[Cl-] [choline chloride] + OCCO
mass density [kg/m3]
Details	x1 = 0.28	x1 = 0.33	x1 = 0.36
298.15 K	1117 ± 12	–	1118 ± 12
303.15 K	1114.1 ± 12	1114.6 ± 12	1115.6 ± 12
308.15 K	1111.1 ± 12	–	1112.2 ± 12
313.15 K	1108.2 ± 12	1108.8 ± 12	1109.7 ± 12
318.15 K	1105.2 ± 12	–	1106.4 ± 12
323.15 K	1102.3 ± 12	1103.6 ± 12	1103.7 ± 12
328.15 K	1099.3 ± 12	–	1100.6 ± 12
333.15 K	1096.2 ± 12	1097.4 ± 12	1096.8 ± 12
338.15 K	1093.4 ± 12	–	1094.8 ± 12
343.15 K	1090.4 ± 12	1091.6 ± 12	1091 ± 12
348.15 K	1087.5 ± 12	–	1089 ± 12
353.15 K	1084.7 ± 12	1085.4 ± 12	1087 ± 12
358.15 K	1081.6 ± 12	–	1083.2 ± 12
363.15 K	1078.8 ± 12	1079.1 ± 12	1082 ± 12
368.15 K	1075.7 ± 12	–	1077.4 ± 12

C[P+](c1ccccc1)(c1ccccc1)c1ccccc1.[Br-] [methyltriphenylphosphonium bromide] + OCC(O)CO
mass density [kg/m3]
Details	x1 = 0.2	x1 = 0.25	x1 = 0.33
298.15 K	1288.9 ± 13	1297.6 ± 13	–
303.15 K	1285.5 ± 13	1294.5 ± 13	1303 ± 13
308.15 K	1281.7 ± 13	1290.6 ± 13	–
313.15 K	1278 ± 13	1287 ± 13	1295.2 ± 13
318.15 K	1274.5 ± 13	1283.6 ± 13	–
323.15 K	1271 ± 13	1280.9 ± 13	1288.6 ± 13
328.15 K	1267.3 ± 13	1276.6 ± 13	–
333.15 K	1263.4 ± 13	1273.6 ± 13	1281.7 ± 13
338.15 K	1260.1 ± 13	1269.6 ± 13	–
343.15 K	1256.8 ± 13	1266 ± 13	1274.9 ± 13
348.15 K	1252.9 ± 13	1262.6 ± 13	–
353.15 K	1249.5 ± 13	1259.3 ± 13	1268.2 ± 13
358.15 K	1245.7 ± 13	1255.6 ± 13	–
363.15 K	1242.3 ± 13	1252.4 ± 13	1261.5 ± 13
368.15 K	1238.5 ± 13	1248.6 ± 13	–

C[P+](c1ccccc1)(c1ccccc1)c1ccccc1.[Br-] [methyltriphenylphosphonium bromide] + OCCO
mass density [kg/m3]
Details	303.15 K	313.15 K	323.15 K	333.15 K	343.15 K	353.15 K	363.15 K
x1 = 0.16	1216.3 ± 12	1208.6 ± 12	1202 ± 12	1194.7 ± 12	1187 ± 12	1179.2 ± 12	1172.3 ± 12
x1 = 0.2	1229 ± 12	1222 ± 12	1215.1 ± 12	1207.9 ± 12	1200.6 ± 12	1193.6 ± 12	1186.4 ± 12
x1 = 0.25	1242.4 ± 13	1239.8 ± 13	1232.4 ± 12	1226 ± 12	1218.8 ± 12	1211.9 ± 12	1204.5 ± 12
